Data as given in publication PMC8916643, “Molecular physiology of pumiliotoxin sequestration in a poison frog” (PLoS ONE, 2022).

Key:
mice = mice and insects; cited from earlier work
[1] = molecular target: T1, voltage-gated calcium channel Cav1.2 (Homo sapiens, UniProt Q13936); experiment: CiPA cell-based QPatch ion channel inhibition; settings: maximum concentration of 30 uM
T1 construct: Eurofins Discovery Services (Eurofins Panlabs Inc) ran the assay
Method: (§1) Assays for human CYP activity (CYP phenotyping), CYP2D6 metabolite discovery (metID), ion channel inhibition (CiPA), and G-protein coupled receptor (GPCR) activity (gpcrMAX) were performed through Eurofins Discovery Services (Eurofins Panlabs Inc, St. Charles MO, USA). In the CYP phenotyping panel, human recombinant CYP1A2, CYP2B6, CYP2C8, CYP2C9, CYP2C19, CYP2D6, and CYP3A4 were included in the assay. A concentration of 1E-07 M of PTX 251D was tested, and the percent compound remaining was quantified at 0, 15, 30, 45, and 60 minutes using HPLC-MS/MS. As a positive control, a reference compound was used for each CYP tested (see S1 File for results). In the CYP2D6 metabolism assay, human recombinant CYP2D6 was incubated with an initial concentration of 10 μM and metabolites were quantified after 90 minutes using LC-MS/MS. Two replicates were used for the CYP phenotyping panel and one replicate was used for CYP2D6 metabolite assay. The CiPA assay was a cell-based QPatch on voltage-gated sodium channel NaV1.5 (peak and late/agonist), voltage-gated potassium channels Kv4.3/KChIP2, hERG, KCNQ1/minK, Kir2.1, and voltage-gated calcium channel Cav1.2. The concentrations of PTX 251D assayed were 3, 10, and 30 μM, and a reference compound for each channel was used (see S1 File for results and individual QPatch parameters). In the gpcrMAX assay a panel of 165 GPCRs was tested through the DiscoverX PathHunter beta-arrestin enzyme fragment complementation technology, and a concentration of 10 μM PTX 251D was tested for both agonist and antagonist activity along with a reference compound for each GPCR (see S1 File for results).

[2] = Alkaloid feeding experiment, alkaloid abundance in tissues by LC-MS/MS; type: in vivo, Dendrobates tinctorius; settings: DHQ+PTX feeding group; fed orally daily for five days
From the text: Lab-reared (non-toxic) Dendrobates tinctorius were housed in terraria with live plants, a water pool, and a shelter. Ten adult females were size-matched, randomly assigned to control or experimental groups (N = 5 per group), and then housed individually. To measure the specific effects of PTX 251D compared to a background toxicity, the control group was fed 0.01% DHQ (Sigma-Aldrich, St. Louis, USA) in a solution of 1% EtOH and the experimental group was fed a solution of 0.01% DHQ and 0.01% PTX 251D (PepTech, Burlington, MA, USA) in a solution of 1% EtOH in water. Each frog was fed 15 μL each day for five days by pipetting the solution directly into the mouth between 10am-12pm. On the afternoon of the fifth day, frogs were euthanized by cervical transection and the dorsal skin, liver, intestines, and oocytes were dissected into Trizol (Thermo Fisher Scientific, Waltham, USA).
To isolate alkaloids, 0.3 mL of 100% EtOH was added to 1mL of organic layer from the Trizol RNA extraction, inverted 10 times, and stored at room temperature for 2–3 minutes to precipitate genomic DNA, which was pelleted by centrifugation at 2000g for 5 minutes at 4°C. Then, 300 μL of supernatant was transferred to a new microfuge tube. Proteins were precipitated by adding 900 μL of acetone, mixing by inversion for 10–15 seconds, incubating at room temperature for 10 min, and centrifuging at max speed for 10 min at 4°C. Then, 1 mL of the supernatant containing alkaloids was moved into a glass vial and stored at -20°C until dried down completely under a gentle nitrogen gas flow.
Samples were resuspended in 200 μl of methanol:chloroform 1:1 and 1 μM Nicotine-d3 (used as an internal standard). A 10-point standard curve was prepared in the same solution with DHQ and PTX 251D. A QE+ mass spectrometer coupled to an Ultimate3000 LC (ThermoFisher) was used for analysis. […] The gradient was 0% B for 1 min, then increased to 100% B in 14 min, followed by 5 min at 100% B and 3.5 min at 0% B. Data were quantified using accurate mass, using the standard curve for DHQ and PTX 251D for absolute quantification. aPTX 267A was identified by accurate mass and MS/MS fragmentation similarity to PTX.
R version 3.6.3 was used for all statistical analyses, and all plotting and statistics code is provided in a S1 File. There were instances in the LC-MS/MS data where the molecules of interest (DHQ, PTX 251D, or aPTX 267A) were not detected, and these were converted to zeros prior to statistical analyses and visualization. […] PTX 251D and DHQ were analyzed separately. The abundance of aPTX 267A was approximated using the area-under-the-curve divided by the internal nicotine standard, and as there is no standard for aPTX 267A, exact pmol values could not be calculated. […]

human recombinant CYP2D6 = molecular target: T2, human recombinant CYP2D6 (Homo sapiens, UniProt P10635); experiment: CYP2D6 metabolite discovery (metID); type: in vitro ADME; settings: initial concentration 10 μM
T2 construct: Eurofins Discovery Services (Eurofins Panlabs Inc) ran the assay
T2 sequence (P10635 whole entry): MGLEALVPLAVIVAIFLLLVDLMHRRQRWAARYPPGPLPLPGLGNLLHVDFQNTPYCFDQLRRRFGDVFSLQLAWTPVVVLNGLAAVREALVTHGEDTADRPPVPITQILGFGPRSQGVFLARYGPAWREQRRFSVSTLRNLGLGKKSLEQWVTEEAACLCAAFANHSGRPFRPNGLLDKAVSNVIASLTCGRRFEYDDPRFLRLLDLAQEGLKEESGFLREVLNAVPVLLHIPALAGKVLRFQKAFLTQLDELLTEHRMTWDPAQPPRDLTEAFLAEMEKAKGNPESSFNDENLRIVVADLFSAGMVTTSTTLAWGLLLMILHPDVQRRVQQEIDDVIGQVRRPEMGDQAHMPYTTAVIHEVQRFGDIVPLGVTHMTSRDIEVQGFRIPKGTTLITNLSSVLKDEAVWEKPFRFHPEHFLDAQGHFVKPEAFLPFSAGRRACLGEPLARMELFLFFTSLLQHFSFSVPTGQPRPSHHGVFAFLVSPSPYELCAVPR
Method: as §1, with “In the gpcrMAX assay a panel of 165 GPCRs was tested through the DiscoverX PathHunter beta-arrestin enzyme fragment complementation technology, and a concentration of 10 μM PTX 251D was tested for both agonist and antagonist activity along with a reference compound for each GPCR (see S1 File for results).” left out

T1 sequence (Q13936 whole entry): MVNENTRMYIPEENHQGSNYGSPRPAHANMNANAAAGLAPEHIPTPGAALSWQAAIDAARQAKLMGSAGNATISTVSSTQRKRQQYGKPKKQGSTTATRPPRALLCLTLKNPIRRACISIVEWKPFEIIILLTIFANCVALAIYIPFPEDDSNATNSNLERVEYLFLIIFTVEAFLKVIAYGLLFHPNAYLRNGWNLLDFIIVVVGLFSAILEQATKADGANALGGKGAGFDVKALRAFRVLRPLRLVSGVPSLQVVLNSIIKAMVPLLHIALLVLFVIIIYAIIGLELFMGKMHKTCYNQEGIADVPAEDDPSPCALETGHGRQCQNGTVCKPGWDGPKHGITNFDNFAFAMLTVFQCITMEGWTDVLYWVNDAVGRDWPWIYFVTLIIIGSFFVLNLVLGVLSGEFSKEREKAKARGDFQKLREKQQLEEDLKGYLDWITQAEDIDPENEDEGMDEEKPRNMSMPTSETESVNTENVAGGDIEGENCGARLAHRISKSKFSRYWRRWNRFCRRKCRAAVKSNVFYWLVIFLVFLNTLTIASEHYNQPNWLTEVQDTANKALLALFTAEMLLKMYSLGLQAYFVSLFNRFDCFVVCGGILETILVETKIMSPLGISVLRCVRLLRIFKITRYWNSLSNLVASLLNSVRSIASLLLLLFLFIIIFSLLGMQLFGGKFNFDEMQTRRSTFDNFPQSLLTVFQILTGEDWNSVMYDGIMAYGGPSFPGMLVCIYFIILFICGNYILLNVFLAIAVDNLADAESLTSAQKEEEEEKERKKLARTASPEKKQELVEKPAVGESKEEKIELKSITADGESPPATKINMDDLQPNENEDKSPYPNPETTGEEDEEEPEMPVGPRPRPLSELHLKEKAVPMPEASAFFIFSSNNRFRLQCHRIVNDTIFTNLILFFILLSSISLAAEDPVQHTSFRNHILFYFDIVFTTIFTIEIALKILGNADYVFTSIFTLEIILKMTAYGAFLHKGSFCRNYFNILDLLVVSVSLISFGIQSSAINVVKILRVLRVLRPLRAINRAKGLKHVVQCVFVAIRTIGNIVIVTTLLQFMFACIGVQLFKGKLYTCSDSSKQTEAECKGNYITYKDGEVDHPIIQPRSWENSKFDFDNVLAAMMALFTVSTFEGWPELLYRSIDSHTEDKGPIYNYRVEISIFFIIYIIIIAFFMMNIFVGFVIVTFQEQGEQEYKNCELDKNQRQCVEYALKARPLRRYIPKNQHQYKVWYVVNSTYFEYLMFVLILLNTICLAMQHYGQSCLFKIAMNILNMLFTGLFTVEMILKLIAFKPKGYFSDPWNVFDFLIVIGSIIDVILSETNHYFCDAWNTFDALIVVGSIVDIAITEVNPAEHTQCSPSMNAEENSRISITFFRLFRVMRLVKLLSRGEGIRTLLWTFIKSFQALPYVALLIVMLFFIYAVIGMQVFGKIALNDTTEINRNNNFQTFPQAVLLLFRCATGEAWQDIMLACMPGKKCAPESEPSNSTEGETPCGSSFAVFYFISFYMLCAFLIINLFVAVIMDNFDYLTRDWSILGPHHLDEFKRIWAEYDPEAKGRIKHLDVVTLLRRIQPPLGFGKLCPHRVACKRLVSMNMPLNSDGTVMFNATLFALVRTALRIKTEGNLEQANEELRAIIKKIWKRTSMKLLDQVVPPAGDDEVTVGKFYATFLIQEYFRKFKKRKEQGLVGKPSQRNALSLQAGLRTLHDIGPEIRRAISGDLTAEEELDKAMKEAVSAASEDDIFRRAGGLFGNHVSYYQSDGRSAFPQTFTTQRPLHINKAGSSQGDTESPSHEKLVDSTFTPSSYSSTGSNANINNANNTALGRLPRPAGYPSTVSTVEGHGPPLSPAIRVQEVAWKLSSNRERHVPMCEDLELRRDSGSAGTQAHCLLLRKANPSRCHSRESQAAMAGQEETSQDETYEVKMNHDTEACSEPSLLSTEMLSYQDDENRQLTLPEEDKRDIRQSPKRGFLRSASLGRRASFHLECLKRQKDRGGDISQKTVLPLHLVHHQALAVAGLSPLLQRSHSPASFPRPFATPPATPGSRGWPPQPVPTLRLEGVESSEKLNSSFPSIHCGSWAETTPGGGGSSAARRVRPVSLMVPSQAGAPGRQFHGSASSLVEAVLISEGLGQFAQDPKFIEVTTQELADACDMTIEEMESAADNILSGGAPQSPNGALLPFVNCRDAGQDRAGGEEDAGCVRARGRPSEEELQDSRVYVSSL
T1 sequence (Q08289 whole entry partner): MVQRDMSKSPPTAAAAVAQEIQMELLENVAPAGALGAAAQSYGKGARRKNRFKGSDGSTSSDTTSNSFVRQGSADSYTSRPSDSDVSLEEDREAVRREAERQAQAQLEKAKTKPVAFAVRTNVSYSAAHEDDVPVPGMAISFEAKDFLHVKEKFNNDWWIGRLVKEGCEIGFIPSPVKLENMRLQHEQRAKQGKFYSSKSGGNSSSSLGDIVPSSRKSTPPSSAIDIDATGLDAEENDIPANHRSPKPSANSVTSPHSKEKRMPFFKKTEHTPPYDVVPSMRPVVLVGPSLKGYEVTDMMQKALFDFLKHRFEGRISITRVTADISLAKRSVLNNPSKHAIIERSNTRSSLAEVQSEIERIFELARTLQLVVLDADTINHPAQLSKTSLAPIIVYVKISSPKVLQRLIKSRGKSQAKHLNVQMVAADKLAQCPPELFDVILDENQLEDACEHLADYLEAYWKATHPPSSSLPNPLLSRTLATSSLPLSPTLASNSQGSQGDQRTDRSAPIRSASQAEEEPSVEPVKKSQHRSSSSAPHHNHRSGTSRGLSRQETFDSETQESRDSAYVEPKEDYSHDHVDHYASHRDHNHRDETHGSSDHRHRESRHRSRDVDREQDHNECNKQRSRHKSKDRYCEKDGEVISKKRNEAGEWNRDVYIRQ
T1 sequence (P54289 25-946 partner limits assumed): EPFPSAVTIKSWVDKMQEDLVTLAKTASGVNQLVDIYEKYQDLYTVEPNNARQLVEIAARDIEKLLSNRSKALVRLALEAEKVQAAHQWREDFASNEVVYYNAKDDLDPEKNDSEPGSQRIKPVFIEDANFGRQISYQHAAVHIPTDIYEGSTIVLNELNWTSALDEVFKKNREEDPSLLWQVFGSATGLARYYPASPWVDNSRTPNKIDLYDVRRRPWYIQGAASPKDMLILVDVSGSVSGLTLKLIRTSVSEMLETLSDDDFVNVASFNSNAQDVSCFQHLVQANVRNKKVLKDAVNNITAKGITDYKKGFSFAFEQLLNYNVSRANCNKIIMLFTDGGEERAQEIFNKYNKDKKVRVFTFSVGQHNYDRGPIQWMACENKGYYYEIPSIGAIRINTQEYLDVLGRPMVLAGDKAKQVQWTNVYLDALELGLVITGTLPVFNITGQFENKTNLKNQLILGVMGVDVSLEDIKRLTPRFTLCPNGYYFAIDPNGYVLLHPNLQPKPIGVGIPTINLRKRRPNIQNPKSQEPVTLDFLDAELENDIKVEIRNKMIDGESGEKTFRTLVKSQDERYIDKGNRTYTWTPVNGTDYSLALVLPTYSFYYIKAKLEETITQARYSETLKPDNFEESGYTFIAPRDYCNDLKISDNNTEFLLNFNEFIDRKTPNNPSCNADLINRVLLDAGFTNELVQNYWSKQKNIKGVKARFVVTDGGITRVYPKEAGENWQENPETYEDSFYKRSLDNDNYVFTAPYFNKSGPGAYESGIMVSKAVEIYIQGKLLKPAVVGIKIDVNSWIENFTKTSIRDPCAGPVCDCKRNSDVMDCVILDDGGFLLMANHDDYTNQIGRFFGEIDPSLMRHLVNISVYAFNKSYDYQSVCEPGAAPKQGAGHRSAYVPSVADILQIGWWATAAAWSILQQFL
T1 sequence (P54289 947-1103 partner limits assumed): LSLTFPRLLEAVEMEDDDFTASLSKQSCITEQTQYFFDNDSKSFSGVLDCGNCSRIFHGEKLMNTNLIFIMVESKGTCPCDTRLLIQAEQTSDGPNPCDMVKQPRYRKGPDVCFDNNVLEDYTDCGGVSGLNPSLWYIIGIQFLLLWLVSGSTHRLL

CCCCC(C)C=C1CN2CCCC2C(C)(O)C1 (centres unmarked) [PTX 251D, pumiliotoxin (PTX 251D)]
toxic effects (mice): pain, hyperactivity, convulsions and death | inhibitory effect on Cav1.2 [1]: no inhibitory effect | PTX 251D abundance by tissue and treatment [2]: highest levels in the liver and skin | metabolites identified with CYP2D6 (human recombinant CYP2D6; 90 minutes, one or two hydroxylation events): two metabolites were identified | clearance of PTX 251D in CYP2D6 metabolite discovery screen (human recombinant CYP2D6; after 90 minutes, LC-MS/MS): completely cleared
